Data reported in ChEMBL document CHEMBL1149131, “QSAR study of anticonvulsant negative allosteric modulators of the AMPA receptor” (J Med Chem, 2004).

How the values were obtained:
[1] = target: T1, Glutamate receptor ionotropic, AMPA (Mus musculus) (UniProt P23819+P23818+Q9Z2W8+Q9Z2W9); experiment: In vivo anticonvulsant activity was measured as median effective dose required to prevent clonic phase of seizure in DBA/2 mice; assay type: functional, organism-based
[2] = target: T1, Glutamate receptor ionotropic, AMPA (Mus musculus); experiment: In vivo anticonvulsant activity was measured as median effective dose required to prevent tonic phase of seizure in DBA/2 mice; assay type: functional, organism-based

T1 sequence (P23818 whole entry, looked up): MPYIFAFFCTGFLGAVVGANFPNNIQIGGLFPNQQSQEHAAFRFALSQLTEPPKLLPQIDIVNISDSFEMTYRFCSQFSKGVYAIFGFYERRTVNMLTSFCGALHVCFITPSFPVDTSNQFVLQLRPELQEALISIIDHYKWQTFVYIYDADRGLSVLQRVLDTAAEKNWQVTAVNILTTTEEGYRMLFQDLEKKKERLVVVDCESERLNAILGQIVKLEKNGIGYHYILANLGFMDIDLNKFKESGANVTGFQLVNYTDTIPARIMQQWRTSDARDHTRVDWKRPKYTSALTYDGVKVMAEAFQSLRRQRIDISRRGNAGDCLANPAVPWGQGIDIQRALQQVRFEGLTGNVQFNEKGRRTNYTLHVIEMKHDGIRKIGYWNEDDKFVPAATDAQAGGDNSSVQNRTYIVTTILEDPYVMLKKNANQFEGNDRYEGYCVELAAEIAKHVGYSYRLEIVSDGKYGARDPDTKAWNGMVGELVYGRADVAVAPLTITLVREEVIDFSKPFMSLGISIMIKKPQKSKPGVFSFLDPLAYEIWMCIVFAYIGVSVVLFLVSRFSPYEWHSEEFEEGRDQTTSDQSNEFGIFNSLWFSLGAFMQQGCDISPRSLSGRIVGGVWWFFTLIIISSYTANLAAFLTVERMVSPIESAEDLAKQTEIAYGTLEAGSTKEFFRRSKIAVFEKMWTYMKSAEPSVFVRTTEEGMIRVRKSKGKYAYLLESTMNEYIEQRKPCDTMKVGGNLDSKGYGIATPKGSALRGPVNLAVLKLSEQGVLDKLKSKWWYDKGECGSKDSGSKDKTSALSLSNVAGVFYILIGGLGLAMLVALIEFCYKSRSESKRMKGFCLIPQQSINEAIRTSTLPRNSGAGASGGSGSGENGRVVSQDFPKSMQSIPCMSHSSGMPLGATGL
T1 sequence (P23819 whole entry, looked up): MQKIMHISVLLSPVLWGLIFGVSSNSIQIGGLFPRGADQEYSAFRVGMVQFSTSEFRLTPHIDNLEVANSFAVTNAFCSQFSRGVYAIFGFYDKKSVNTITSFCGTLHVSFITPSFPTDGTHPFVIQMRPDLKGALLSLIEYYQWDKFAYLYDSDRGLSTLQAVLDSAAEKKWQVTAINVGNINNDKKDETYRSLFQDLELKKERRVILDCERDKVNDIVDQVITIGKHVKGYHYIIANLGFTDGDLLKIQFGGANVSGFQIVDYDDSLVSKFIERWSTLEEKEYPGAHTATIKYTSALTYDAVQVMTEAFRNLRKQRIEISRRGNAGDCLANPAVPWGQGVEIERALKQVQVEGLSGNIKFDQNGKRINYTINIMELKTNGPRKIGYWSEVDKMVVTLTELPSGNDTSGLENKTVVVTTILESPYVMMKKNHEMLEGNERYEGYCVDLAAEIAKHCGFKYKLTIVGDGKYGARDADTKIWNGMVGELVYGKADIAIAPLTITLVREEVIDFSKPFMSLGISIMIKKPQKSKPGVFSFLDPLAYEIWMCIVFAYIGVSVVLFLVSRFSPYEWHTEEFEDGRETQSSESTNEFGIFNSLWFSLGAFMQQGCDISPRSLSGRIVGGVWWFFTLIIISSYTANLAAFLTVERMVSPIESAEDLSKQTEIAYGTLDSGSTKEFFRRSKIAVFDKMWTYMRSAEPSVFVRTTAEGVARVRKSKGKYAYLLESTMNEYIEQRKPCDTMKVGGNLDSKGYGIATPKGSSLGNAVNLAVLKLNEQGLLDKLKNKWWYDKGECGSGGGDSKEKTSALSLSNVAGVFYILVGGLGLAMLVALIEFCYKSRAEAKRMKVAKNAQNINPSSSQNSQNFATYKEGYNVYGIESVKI
T1 sequence (Q9Z2W8 whole entry, looked up): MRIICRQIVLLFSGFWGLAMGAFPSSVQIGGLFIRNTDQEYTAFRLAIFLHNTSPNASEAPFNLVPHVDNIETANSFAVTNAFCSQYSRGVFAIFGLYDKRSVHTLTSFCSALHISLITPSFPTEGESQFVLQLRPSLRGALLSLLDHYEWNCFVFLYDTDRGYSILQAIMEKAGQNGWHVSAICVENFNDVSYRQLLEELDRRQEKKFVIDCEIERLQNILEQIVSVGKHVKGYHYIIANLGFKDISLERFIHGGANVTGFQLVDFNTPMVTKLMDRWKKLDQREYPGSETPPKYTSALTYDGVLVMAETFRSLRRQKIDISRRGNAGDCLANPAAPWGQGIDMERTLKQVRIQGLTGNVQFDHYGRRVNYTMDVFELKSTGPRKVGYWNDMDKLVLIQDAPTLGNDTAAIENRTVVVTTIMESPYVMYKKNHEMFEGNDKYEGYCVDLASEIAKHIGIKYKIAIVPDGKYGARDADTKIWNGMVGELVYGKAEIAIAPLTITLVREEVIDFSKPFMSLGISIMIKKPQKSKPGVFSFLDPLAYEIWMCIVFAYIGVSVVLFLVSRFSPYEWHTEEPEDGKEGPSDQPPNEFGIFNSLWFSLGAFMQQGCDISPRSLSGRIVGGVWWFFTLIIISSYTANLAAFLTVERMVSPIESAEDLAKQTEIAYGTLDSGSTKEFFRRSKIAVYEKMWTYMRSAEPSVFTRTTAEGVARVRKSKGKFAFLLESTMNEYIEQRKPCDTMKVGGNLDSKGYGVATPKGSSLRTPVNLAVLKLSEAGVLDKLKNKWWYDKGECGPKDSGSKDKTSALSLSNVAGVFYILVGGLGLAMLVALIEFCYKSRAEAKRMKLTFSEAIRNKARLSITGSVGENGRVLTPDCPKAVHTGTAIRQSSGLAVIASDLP
T1 sequence (Q9Z2W9 whole entry, looked up): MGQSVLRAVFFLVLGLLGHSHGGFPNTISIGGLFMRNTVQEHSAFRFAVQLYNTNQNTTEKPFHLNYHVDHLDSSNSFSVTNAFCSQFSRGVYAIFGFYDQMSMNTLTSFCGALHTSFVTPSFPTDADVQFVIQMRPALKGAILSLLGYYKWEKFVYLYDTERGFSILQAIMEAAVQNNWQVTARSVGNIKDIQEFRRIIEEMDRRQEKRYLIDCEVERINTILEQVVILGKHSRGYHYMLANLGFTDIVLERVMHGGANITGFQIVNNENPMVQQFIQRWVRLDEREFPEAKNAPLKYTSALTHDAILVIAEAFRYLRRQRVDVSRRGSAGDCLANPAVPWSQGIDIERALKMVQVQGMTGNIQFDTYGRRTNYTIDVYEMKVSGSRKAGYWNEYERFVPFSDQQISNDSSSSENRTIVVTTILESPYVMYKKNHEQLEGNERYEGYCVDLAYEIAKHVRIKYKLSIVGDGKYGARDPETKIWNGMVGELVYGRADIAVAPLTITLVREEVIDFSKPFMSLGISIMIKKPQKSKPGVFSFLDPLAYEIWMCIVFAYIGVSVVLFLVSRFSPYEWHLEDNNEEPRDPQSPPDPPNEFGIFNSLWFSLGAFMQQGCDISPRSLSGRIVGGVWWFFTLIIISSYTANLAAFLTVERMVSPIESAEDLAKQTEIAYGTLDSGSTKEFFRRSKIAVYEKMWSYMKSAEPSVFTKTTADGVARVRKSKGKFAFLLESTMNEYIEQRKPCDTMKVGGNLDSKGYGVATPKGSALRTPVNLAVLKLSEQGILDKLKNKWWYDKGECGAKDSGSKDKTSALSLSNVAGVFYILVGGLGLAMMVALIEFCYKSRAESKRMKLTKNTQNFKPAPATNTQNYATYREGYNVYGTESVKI

Nc1ccc(-c2nnc(O)c3cc4c(cc23)OCO4)cc1
ED50 [1]: 21.2 µmol/kg | ED50 [2]: 7.56 µmol/kg

COc1cc2c(cc1OC)C(c1ccc(Cl)cc1)NCC2 (configuration not stated)
ED50 [1]: 20.1 µmol/kg | ED50 [2]: 19.3 µmol/kg

COc1cc2c(cc1OC)C(c1ccc(N(C(C)=O)C(C)=O)cc1)=NN(C(C)=O)C(=O)C2
ED50 [1]: 56.8 µmol/kg | ED50 [2]: 43.9 µmol/kg

COc1ccc2c(c1)CC(=O)NN1C(c3ccccc3)=NOC21c1ccccc1 (configuration not stated)
ED50 [1]: 119 µmol/kg | ED50 [2]: 100 µmol/kg

CNC(=O)N1N=C(c2ccc(N)cc2)c2cc3c(cc2CC1=O)OCO3
ED50 [1]: 12.4 µmol/kg | ED50 [2]: 8.7 µmol/kg

COc1cc2c(cc1OC)C(c1ccccc1)=NNC(=O)C2
ED50 [1]: 33.9 µmol/kg | ED50 [2]: 31.8 µmol/kg

Oc1nnc(-c2ccccc2)c2cc3c(cc12)OCO3
ED50 [1]: 36.7 µmol/kg | ED50 [2]: 31.3 µmol/kg

COc1cc2c(cc1OC)C(c1ccc(Br)cc1)=NN=C(S)C2
ED50 [1]: 52.1 µmol/kg | ED50 [2]: 33.3 µmol/kg

COc1cc2c(cc1OC)C(c1ccc(Br)cc1)=NN(C)C(=S)C2
ED50 [1]: 105 µmol/kg | ED50 [2]: 60.4 µmol/kg

COc1cc2c(cc1OC)C(c1cccc([N+](=O)[O-])c1)=Nn1c(O)nnc1C2
ED50 [1]: 56.4 µmol/kg | ED50 [2]: 43.2 µmol/kg

COc1cc2c(cc1OC)C(c1ccc(N)cc1)=NN=C(S)C2
ED50 [1]: 6.3 µmol/kg | ED50 [2]: 3.3 µmol/kg

SC1=NN=C(c2ccccc2)c2cc3c(cc2C1)OCO3
ED50 [1]: 23.8 µmol/kg | ED50 [2]: 18.8 µmol/kg

COc1cc2c(cc1OC)C(c1ccccc1)=NN(C)C(=O)C2
ED50 [1]: 37.8 µmol/kg | ED50 [2]: 26.7 µmol/kg

COc1cc2c(cc1OC)C(c1cccc(N)c1)=NN(C)C(=O)C2
ED50 [1]: 36.8 µmol/kg | ED50 [2]: 30.6 µmol/kg

COc1cc2c(cc1OC)C(c1ccc(Br)cc1)=NNC(=O)C2
ED50 [1]: 110 µmol/kg | ED50 [2]: 82.5 µmol/kg

COc1cc2c(cc1OC)C(c1ccc(N)cc1)=Nn1cnnc1C2
ED50 [1]: 57.3 µmol/kg | ED50 [2]: 48.3 µmol/kg

CNC(=O)n1nc(-c2ccc(N)cc2)c2cc3c(cc2c1=O)OCO3
ED50 [1]: 23.4 µmol/kg | ED50 [2]: 16.8 µmol/kg

COc1cc2c(cc1OC)C(c1ccc([N+](=O)[O-])cc1)NCC2 (configuration not stated)
ED50 [1]: 100 µmol/kg | ED50 [2]: 56.1 µmol/kg

COc1cc2c(cc1OC)C(c1ccccc1)=NN(C)C(=S)C2
ED50 [1]: 30.6 µmol/kg | ED50 [2]: 24.7 µmol/kg

Nc1ccc(C2=NNC(=O)Cc3cc4c(cc32)OCO4)cc1
ED50 [1]: 15.4 µmol/kg | ED50 [2]: 10.9 µmol/kg

COc1cc2c(cc1OC)C(c1ccc([N+](=O)[O-])cc1)=NN(C)C(=S)C2
ED50 [1]: 103 µmol/kg | ED50 [2]: 81.5 µmol/kg

COc1cc2c(cc1OC)C(c1ccc([N+](=O)[O-])cc1)=Nn1c(C)nnc1C2
ED50 [1]: 66.7 µmol/kg | ED50 [2]: 59.3 µmol/kg

COc1cc2c(cc1OC)C(c1ccc(N)cc1)=NN(C)C(=O)C2
ED50 [1]: 50.2 µmol/kg | ED50 [2]: 43.7 µmol/kg

COc1cc2c(cc1OC)C(c1ccc(Br)cc1)NCC2 (configuration not stated)
ED50 [1]: 30.6 µmol/kg | ED50 [2]: 12.5 µmol/kg

COc1cc2c(cc1OC)C(c1ccc(Cl)cc1)=NNC(=O)C2
ED50 [1]: 102 µmol/kg | ED50 [2]: 75.3 µmol/kg

O=C1Cc2cc3c(cc2C(c2ccc(O)cc2)=NN1)OCO3
ED50 [1]: 52.3 µmol/kg | ED50 [2]: 49.6 µmol/kg

COc1cc2c(cc1OC)C(c1ccc(Cl)cc1)=NN(C)C(=O)C2
ED50 [1]: 41.2 µmol/kg | ED50 [2]: 38.6 µmol/kg

COc1cc2c(cc1OC)C(c1ccc(N)cc1)=NNC(=O)C2
ED50 [1]: 15 µmol/kg | ED50 [2]: 12.6 µmol/kg

Nc1cccc(C2=NNC(=O)Cc3cc4c(cc32)OCO4)c1
ED50 [1]: 18 µmol/kg | ED50 [2]: 12.7 µmol/kg

COc1cc2c(cc1OC)C(c1cccc([N+](=O)[O-])c1)NCC2 (configuration not stated)
ED50 [1]: 19.3 µmol/kg | ED50 [2]: 7.19 µmol/kg

COc1cc2c(cc1OC)C(c1ccc([N+](=O)[O-])cc1)=NN=C(S)C2
ED50 [1]: 93.4 µmol/kg | ED50 [2]: 69.8 µmol/kg

COc1ccc2c(c1)CC(=O)N(C)N=C2c1ccccc1
ED50 [1]: 117 µmol/kg | ED50 [2]: 99.1 µmol/kg

CCCNC(=O)n1nc(-c2ccc(N)cc2)c2cc3c(cc2c1=O)OCO3
ED50 [1]: 15.8 µmol/kg | ED50 [2]: 6.82 µmol/kg

COc1cc2c(cc1OC)C(c1cccc(N)c1)=Nn1c(O)nnc1C2
ED50 [1]: 20.1 µmol/kg | ED50 [2]: 13.1 µmol/kg

COc1cc2c(cc1OC)C(c1ccc(N)cc1)=NN(C)C(=S)C2
ED50 [1]: 29.8 µmol/kg | ED50 [2]: 20.3 µmol/kg

O=C1Cc2cc3c(cc2C(c2ccccc2)=NN1)OCO3
ED50 [1]: 43.3 µmol/kg | ED50 [2]: 40.6 µmol/kg

CN1N=C(c2ccccc2)c2cc3c(cc2CC1=O)OCO3
ED50 [1]: 82.5 µmol/kg | ED50 [2]: 70.4 µmol/kg

COc1cc2c(cc1OC)C(c1ccccc1)=NN(C(C)=O)C(=O)C2
ED50 [1]: 101 µmol/kg | ED50 [2]: 72.1 µmol/kg

COc1ccc2c(c1)CC(=O)NN=C2c1ccccc1
ED50 [1]: 75.5 µmol/kg | ED50 [2]: 64.8 µmol/kg

COc1cc2c(cc1OC)C(c1ccc(N)cc1)=Nn1c(O)nnc1C2
ED50 [1]: 16.1 µmol/kg | ED50 [2]: 10.2 µmol/kg

COc1cc2c(-c3cccc([N+](=O)[O-])c3)nn(C)c(=O)c2cc1OC
ED50 [1]: 110 µmol/kg | ED50 [2]: 80.3 µmol/kg

COc1cc2c(cc1OC)C(c1ccc(F)cc1)=NNC(=O)C2
ED50 [1]: 78 µmol/kg | ED50 [2]: 57.2 µmol/kg

COc1cc2c(cc1OC)C(c1ccc(N)cc1)=Nn1c(C)nnc1C2
ED50 [1]: 59.9 µmol/kg | ED50 [2]: 44.7 µmol/kg

COc1cc2c(cc1OC)C(c1ccccc1)=NN=C(S)C2
ED50 [1]: 19.7 µmol/kg | ED50 [2]: 15 µmol/kg

COc1cc2c(cc1OC)C(c1ccc(Cl)cc1)=NN=C(S)C2
ED50 [1]: 82.4 µmol/kg | ED50 [2]: 55 µmol/kg

COc1cc2c(-c3cccc(N)c3)nn(C)c(=O)c2cc1OC
ED50 [1]: 63.7 µmol/kg | ED50 [2]: 55.2 µmol/kg

COc1cc2c(O)nnc(-c3ccc(N)cc3)c2cc1OC
ED50 [1]: 60.5 µmol/kg | ED50 [2]: 52 µmol/kg

COc1cc2c(cc1OC)C(c1ccccc1)=Nn1c(O)nnc1C2
ED50 [1]: 44.6 µmol/kg | ED50 [2]: 27.5 µmol/kg

COc1cc2c(cc1OC)C(c1ccc([N+](=O)[O-])cc1)=Nn1c(O)nnc1C2
ED50 [1]: 74.1 µmol/kg | ED50 [2]: 58.3 µmol/kg

COc1cc2c(O)nnc(-c3cccc(N)c3)c2cc1OC
ED50 [1]: 68.3 µmol/kg | ED50 [2]: 59.9 µmol/kg

COc1cc2c(cc1OC)C(c1ccc(Br)cc1)=NN(C)C(=O)C2
ED50 [1]: 63 µmol/kg | ED50 [2]: 38 µmol/kg

COc1cc2c(O)nnc(-c3ccc(NC(C)=O)cc3)c2cc1OC
ED50 [1]: 62 µmol/kg | ED50 [2]: 48.8 µmol/kg

COc1cc2c(O)nnc(-c3cccc([N+](=O)[O-])c3)c2cc1OC
ED50 [1]: 81.7 µmol/kg | ED50 [2]: 75.5 µmol/kg

COc1cc2c(cc1OC)C(c1cccc(N)c1)=NN=C(S)C2
ED50 [1]: 18.8 µmol/kg | ED50 [2]: 9.1 µmol/kg

COc1cc2c(cc1OC)C(c1cccc(N)c1)=NNC(=O)C2
ED50 [1]: 19.3 µmol/kg | ED50 [2]: 18.3 µmol/kg

COc1cc2c(cc1OC)C(c1cccc([N+](=O)[O-])c1)N(C(C)=O)CC2 (configuration not stated)
ED50 [1]: 37.2 µmol/kg | ED50 [2]: 12.7 µmol/kg

CC1=NN=C(c2ccc(N)cc2)c2cc3c(cc2C1)OCO3
ED50 [1]: 35.8 µmol/kg | ED50 [2]: 25.3 µmol/kg

Nc1cccc(-c2nnc(O)c3cc4c(cc23)OCO4)c1
ED50 [1]: 23.3 µmol/kg | ED50 [2]: 15.7 µmol/kg

COc1cc2c(cc1OC)C(c1ccc(F)cc1)=Nn1c(O)nnc1C2
ED50 [1]: 32.1 µmol/kg | ED50 [2]: 21.8 µmol/kg

CN1N=C(c2ccc(N)cc2)c2cc3c(cc2CC1=O)OCO3
ED50 [1]: 41.1 µmol/kg | ED50 [2]: 29.5 µmol/kg

O=C1Cc2cc3c(cc2C(c2ccc(F)cc2)=NN1)OCO3
ED50 [1]: 89.8 µmol/kg | ED50 [2]: 63.8 µmol/kg
